Reference: ChEMBL document CHEMBL1201862, “PubChem BioAssay data set” (2004)
Active and inactive are the calls of the source.

Assays:
[1] = target: Large T antigen (Simian virus 40, UniProt P03070); type: functional, Betapolyomavirus macacae;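 note: Confirmatory-stage PubChem screen for compounds that inhibit SV40 T antigen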
[2] = target: T1, Calpain-2 catalytic subunit (Sus scrofa, UniProt P43367); test: pig calpain II inhibitor potency, dose response, biochemical, fluorogenic peptide substrate (AID 1420); type: functional
T1 sequence (P43367 whole entry): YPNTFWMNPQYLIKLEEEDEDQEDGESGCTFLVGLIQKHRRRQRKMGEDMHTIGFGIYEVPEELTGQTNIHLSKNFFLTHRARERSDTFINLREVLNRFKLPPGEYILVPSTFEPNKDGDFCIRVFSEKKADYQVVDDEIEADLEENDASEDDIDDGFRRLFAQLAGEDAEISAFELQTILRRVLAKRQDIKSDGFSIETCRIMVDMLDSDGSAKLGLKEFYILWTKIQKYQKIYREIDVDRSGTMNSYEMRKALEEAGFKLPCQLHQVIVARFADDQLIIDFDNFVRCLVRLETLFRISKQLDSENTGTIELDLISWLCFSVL

[3] = Shn3 3'UTR reporter inhibitors, dose response, cell-based, Clone20 osteoblasts, firefly luciferase, cherry-picked (AID 624132); type: functional;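 note: firefly luciferase luminescence from reporter carrying the Shn3 3'UTR in osteoblasts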
[4] = control 3'UTR Renilla luciferase suppression, dose response, counter-screen for Shn3 inhibitor project, cell-based, Clone20-Shn3RL, cherry-picked (AID 624133); type: functional
[5] = target: Voltage-dependent T-type calcium channel subunit alpha-1H (Homo sapiens, UniProt O95180); type: functional;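 note: channel activity triggered by adding a high calcium stimulation buffer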
[6] = target: T2, Replicative DNA helicase DnaB (Mycobacterium tuberculosis, UniProt P9WMR3); test: DnaB intein splicing inhibitors, dose response, biochemical, cell-free fluorescence (AID 449749); type: functional
T2 sequence (P9WMR3 whole entry): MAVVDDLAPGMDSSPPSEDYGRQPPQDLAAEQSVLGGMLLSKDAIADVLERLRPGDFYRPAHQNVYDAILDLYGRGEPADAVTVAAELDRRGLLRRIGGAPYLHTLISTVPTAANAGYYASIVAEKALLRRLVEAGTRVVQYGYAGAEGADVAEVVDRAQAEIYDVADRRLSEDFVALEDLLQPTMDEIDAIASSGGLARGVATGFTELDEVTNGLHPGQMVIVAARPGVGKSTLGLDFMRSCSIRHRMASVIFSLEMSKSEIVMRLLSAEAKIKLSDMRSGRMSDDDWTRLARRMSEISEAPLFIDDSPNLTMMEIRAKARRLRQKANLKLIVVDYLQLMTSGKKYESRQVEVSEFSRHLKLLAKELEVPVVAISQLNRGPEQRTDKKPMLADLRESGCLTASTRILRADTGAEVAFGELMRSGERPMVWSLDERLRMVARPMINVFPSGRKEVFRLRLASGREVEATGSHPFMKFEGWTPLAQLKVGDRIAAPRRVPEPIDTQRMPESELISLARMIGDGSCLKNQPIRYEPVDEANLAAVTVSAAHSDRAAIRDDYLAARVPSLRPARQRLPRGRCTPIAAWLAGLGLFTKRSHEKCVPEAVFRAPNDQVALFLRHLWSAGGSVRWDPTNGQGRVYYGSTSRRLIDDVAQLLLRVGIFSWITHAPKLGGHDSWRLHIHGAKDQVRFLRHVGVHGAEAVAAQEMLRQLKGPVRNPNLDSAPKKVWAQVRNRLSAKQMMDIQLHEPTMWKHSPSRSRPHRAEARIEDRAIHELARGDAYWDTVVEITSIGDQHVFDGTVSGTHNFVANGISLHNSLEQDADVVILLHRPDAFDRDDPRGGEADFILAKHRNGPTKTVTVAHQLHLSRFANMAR

[7] = target: T3, Protein RecA (Mycobacterium tuberculosis, UniProt P9WHJ3); test: Fluorescence Cell-Free Homogeneous Dose Retest to Identify Inhibitors of RecA-Intein Splicing Activity. [Related pubchem assays (depositor defined):AID2097, AID2223, AID489010, AID492950]; type: functional
T3 sequence (P9WHJ3 whole entry): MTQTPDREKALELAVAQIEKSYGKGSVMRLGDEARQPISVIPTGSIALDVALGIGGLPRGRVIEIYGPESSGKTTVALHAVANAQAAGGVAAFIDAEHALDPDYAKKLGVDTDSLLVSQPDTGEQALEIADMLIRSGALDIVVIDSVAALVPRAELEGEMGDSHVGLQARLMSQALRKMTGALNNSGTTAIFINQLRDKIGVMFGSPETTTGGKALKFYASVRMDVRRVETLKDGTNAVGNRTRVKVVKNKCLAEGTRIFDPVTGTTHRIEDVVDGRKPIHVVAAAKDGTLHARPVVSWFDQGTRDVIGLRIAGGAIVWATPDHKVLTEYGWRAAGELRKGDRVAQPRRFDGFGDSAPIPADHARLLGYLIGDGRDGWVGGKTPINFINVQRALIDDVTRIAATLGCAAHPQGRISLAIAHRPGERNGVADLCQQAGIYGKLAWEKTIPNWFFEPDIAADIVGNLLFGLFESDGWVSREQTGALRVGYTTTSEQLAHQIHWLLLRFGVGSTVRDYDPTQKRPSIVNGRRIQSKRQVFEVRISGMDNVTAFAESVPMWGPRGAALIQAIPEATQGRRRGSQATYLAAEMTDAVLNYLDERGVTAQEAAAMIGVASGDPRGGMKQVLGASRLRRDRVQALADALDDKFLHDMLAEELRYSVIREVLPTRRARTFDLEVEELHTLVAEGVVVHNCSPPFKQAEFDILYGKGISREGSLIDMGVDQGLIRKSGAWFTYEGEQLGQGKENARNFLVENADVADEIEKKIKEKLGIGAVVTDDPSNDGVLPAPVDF

[8] = cells; type: functional, cell-based
[9] = cells; type: functional, cell-based; remark: listed apart in the source
[10] = Luminescence Cell-Based Dose Retest to Confirm Inhibitors of Cancer Stem Cells. [Related pubchem assays (depositor defined):AID2717, AID2721]; type: functional; conditions: Homo sapiens
[11] = HEp-2 cell cytotoxicity, dose response, cytotoxicity control for RSV inhibitor project, HTS (AID 2410); type: functional; conditions: human respiratory syncytial virus
[12] = growth suppression of beta-catenin-knockout colon cells, dose response, cell-based, HCT116, human colon tumor (AID 1045); type: functional;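 note: HCT116 colon tumor cells with beta catenin knocked out; cells exposed to compound for 60 hours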
[13] = growth suppression of PTEN-null colon cells, dose response, cell-based, HCT116 PTEN knockout (AID 1047); type: functional;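 note: HCT116 colon tumor cells with PTEN knocked out; cells exposed to compound for 60 hours before readout; potency for loss of cell viability measured by luminescence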
[14] = target: Cytochrome P450 2C19 (Homo sapiens, UniProt P33261); test: Cytochrome panel assay with activity outcomes. Panel member name: p450-cyp2c19 Compounds with AC50 equal or less than 10 uM are considered active; type: functional; conditions: read-out: AC50
[15] = target: Cytochrome P450 3A4 (Homo sapiens, UniProt P08684);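 note: CYP3A4 tested as one member of a cytochrome P450 panel screen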
[16] = target: T4, Rac GTPase-activating protein 1 (Homo sapiens, UniProt Q9H0H5); test: MgcRacGAP GTPase-activating activity inhibitors, confirmation, biochemical, ADP Hunter fluorescence, primary and confirmatory (AID 624330); type: functional
T4 sequence (Q9H0H5 whole entry): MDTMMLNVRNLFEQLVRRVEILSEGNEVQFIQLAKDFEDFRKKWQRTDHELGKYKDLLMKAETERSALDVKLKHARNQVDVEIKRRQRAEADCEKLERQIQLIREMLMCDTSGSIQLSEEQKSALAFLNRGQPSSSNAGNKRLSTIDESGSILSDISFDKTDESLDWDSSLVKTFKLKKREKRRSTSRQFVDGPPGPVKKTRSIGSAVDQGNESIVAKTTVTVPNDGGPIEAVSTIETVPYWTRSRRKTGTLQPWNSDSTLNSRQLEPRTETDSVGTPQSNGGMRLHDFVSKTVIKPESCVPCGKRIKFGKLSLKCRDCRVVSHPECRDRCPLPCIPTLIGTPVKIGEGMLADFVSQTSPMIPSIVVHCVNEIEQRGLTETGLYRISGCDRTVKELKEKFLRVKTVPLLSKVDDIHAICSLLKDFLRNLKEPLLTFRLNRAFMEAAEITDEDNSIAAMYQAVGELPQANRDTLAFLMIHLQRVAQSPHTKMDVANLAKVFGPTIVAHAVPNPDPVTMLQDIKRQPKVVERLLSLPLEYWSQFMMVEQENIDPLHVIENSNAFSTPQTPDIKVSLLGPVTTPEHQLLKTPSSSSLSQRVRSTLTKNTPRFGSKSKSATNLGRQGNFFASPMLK

[17] = target: Heat shock protein HSP 90-alpha (Homo sapiens, UniProt P07900); type: functional, organism-based
[18] = inhibitors of firefly luciferase expression or activity, dose response, H4 neuroglioma cells, luminescence (AID 1990); type: functional, cell-based
[19] = inhibitors of SNCA 5'UTR-driven reporter translation, confirmation, H4 neuroglioma cells, luminescence (AID 1988); type: functional, cell-based
[20] = Luminescence Cell-Based Dose Response HTS to Identify Inhibitors of 5'UTR Stem-Loop Driven Prion Protein mRNA Translation in H4 Neuroglioblastoma Cells. [Related pubchem assays: 1827 (Project Summary), 1813 (Primary HTS)]; type: functional

Sequence of Voltage-dependent T-type calcium channel subunit alpha-1H (O95180 whole entry): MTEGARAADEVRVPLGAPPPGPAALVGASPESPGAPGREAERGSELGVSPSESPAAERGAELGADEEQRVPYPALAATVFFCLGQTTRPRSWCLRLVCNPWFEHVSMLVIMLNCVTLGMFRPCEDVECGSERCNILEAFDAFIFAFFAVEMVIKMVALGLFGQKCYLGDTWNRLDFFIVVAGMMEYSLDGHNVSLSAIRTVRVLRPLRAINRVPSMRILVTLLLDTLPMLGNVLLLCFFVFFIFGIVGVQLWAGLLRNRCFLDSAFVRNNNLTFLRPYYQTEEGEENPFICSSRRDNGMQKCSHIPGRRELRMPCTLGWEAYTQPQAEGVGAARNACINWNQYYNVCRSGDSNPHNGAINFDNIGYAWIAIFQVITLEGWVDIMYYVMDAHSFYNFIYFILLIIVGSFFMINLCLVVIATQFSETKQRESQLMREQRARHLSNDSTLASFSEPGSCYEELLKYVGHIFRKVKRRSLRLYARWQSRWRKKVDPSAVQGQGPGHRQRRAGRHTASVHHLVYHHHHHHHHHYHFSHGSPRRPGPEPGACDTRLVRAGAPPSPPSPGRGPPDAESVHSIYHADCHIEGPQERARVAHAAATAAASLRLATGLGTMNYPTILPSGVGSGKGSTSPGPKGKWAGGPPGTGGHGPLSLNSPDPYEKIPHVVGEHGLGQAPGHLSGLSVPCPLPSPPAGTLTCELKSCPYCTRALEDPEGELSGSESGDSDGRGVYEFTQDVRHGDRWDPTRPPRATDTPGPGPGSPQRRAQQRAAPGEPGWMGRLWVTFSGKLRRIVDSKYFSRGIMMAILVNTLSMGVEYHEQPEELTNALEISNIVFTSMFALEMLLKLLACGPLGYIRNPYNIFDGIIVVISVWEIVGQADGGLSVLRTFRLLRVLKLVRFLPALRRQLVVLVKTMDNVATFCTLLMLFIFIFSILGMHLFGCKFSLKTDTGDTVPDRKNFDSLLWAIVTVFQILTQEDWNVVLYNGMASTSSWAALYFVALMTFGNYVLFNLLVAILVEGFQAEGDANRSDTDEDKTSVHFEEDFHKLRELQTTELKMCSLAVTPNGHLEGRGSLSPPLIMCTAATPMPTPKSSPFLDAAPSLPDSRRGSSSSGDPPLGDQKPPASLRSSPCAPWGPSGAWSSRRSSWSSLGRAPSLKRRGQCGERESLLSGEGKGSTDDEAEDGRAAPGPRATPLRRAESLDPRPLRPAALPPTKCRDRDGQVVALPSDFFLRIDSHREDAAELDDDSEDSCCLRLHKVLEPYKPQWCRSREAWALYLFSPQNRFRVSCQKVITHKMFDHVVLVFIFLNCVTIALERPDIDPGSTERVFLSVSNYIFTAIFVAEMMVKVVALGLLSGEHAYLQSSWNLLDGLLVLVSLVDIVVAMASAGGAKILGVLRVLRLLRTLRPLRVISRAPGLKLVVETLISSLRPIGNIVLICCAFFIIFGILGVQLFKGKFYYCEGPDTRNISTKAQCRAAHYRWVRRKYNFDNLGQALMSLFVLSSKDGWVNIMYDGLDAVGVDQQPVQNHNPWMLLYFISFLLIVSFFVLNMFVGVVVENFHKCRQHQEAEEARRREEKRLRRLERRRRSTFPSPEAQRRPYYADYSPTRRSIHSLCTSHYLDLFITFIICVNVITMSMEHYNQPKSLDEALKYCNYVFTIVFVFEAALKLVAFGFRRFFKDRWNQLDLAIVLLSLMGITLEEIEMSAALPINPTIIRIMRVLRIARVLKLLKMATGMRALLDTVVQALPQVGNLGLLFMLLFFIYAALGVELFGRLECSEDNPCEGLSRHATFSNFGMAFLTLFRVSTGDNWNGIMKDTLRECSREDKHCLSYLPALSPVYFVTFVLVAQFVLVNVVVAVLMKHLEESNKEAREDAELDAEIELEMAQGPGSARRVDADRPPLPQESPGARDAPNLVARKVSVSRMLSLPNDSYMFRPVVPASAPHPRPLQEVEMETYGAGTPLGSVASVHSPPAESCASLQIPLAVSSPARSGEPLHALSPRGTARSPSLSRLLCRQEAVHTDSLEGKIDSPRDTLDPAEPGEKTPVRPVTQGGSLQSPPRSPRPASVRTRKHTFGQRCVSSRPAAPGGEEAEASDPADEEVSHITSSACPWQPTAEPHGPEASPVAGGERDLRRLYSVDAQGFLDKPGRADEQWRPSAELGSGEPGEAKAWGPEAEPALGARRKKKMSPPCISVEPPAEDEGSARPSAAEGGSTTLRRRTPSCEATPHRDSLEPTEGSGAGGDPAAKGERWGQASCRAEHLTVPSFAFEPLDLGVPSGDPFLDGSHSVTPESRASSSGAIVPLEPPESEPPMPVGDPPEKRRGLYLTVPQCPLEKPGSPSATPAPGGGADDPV
Sequence of Large T antigen (P03070 whole entry): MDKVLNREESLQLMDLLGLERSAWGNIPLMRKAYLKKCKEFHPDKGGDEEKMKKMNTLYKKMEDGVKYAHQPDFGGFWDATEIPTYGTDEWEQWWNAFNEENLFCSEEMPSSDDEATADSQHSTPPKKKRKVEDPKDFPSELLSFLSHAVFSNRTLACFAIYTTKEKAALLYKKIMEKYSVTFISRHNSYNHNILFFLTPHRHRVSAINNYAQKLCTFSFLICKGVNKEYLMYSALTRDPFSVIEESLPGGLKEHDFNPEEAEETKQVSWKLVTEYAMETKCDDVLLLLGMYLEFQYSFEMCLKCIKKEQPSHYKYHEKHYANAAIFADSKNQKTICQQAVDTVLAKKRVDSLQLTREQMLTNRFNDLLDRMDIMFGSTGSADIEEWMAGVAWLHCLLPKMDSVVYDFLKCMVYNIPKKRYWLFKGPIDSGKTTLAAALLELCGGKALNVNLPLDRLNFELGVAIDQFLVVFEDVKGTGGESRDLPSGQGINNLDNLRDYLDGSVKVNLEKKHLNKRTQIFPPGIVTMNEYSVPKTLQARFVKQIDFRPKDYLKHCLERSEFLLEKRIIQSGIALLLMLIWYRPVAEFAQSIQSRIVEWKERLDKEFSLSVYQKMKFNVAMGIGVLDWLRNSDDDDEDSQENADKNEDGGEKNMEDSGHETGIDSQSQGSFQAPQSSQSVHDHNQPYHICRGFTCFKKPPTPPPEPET
Sequence of Cytochrome P450 3A4 (P08684 whole entry): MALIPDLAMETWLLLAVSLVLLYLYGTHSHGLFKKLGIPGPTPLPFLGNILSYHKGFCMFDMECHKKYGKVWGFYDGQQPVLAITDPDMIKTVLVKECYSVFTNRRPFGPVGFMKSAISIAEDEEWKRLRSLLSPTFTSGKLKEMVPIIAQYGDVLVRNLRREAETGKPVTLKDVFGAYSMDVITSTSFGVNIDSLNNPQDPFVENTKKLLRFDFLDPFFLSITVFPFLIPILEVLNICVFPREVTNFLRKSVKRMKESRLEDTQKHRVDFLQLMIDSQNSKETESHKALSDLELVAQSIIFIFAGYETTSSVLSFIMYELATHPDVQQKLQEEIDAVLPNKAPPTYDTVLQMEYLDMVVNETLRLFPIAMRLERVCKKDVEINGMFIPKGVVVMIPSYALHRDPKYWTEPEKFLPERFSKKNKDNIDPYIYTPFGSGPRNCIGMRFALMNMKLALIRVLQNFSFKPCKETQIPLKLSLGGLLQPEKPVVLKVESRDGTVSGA
Sequence of Cytochrome P450 2C19 (P33261 whole entry): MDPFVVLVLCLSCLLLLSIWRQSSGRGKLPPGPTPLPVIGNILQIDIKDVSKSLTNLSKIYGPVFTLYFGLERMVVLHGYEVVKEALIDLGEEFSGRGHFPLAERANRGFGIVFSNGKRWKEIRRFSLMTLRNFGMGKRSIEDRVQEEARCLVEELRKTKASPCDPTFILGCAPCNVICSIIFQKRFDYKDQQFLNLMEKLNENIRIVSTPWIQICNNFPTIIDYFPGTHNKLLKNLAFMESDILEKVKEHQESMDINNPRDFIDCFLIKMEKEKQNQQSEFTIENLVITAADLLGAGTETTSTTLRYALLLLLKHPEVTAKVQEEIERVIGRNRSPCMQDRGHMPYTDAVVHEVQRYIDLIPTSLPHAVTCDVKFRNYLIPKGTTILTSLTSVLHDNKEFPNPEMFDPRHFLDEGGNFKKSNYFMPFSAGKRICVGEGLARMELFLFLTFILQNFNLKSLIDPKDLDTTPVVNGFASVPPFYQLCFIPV

## CC(O)CCc1ccc(O)cc1 (stereo unspecified)
[1]
  IC50: 25.4 µM (active)

## COc1ccccc1-n1c([S-])c(C(=O)Nc2ccccc2C(F)(F)F)[n+]2ccc(C(=O)NCCO)cc12
[2]
  IC50: 6.82 µM (not active)

## O=S(=O)(c1ccc2c(c1)CCCN2)N1CCCC2CCCCC21 (stereo unspecified)
[2]
  IC50: 12.4 µM (not active)

## O=C1c2ccccc2C(=O)N1CCCCSc1nnnn1-c1ccccc1
[2]
  IC50: 9.41 µM (not active)

## O=C1CC(c2ccccc2)CC(=O)C1=CNc1cccc(Cl)c1 (stereo unspecified)
[3]
  AC50: 4.94 µM (active)
[4]
  AC50: 19.8 µM (active)

## CCC(=O)n1nc(NCc2ccccc2OC)nc1NCc1ccccc1OC
[5]
  EC50: 1.68 µM (active)

## O=C(CSC1=NCCS1)Nc1ccc(S(=O)(=O)N2CCCCCC2)cc1
[6]
  AC50: 21.8 µM (active)
[5]
  EC50: 7.64 µM (active)
[7]
  EC50: 10.1 µM (active)

## COc1ccc(OC)c2sc(N3CCN(C(=O)c4ccc5ncsc5c4)CC3)nc12
[8]
  EC50: > 350 µM (not active)
[9]
  EC50: > 350 µM (not active)

## CC(C)=CC(=O)OCC(=O)NC(=O)NC(C)(C)C
[2]
  IC50: > 50 µM (not active)

## CCNc1nc(NCC)n2c(SC(C(=O)Nc3cc(Cl)cc(Cl)c3)c3ccccc3)nnc2n1 (stereo unspecified)
[10]
  AC50: 1.59 µM (active)
[11]
  CC50: 6.19 µM (active)
[12]
  EC50: 6.35 µM (active)
[13]
  EC50: 5.99 µM (active)

## CCOc1ccc2nc(Cl)c(C3CC(c4ccccc4)=NN3C(=O)c3cccs3)cc2c1 (stereo unspecified)
[12]
  EC50: 3.9 µM (active)
[13]
  EC50: 4.07 µM (active)

## CCCCOc1ccc(C(=O)NCC(=O)OC2CCOC2=O)cc1 (stereo unspecified)
[8]
  EC50: > 350 µM (not active)
[9]
  EC50: > 350 µM (not active)

## COCc1ccc(C(=O)N2CCCC(CCC(=O)NCc3ccccc3F)C2)o1 (stereo unspecified)
[8]
  EC50: > 350 µM (not active)
[9]
  EC50: > 350 µM (not active)

## c1ccc(-c2ccccc2-c2nc(-c3cccnc3)no2)cc1
[5]
  EC50: 8.07 µM (active)

## CC(C)Sc1oc(-c2ccco2)nc1S(=O)(=O)c1ccc(F)cc1
[5]
  EC50: 7.9 µM (active)

## Cc1cccc(OCCCSc2nc3ccccc3[nH]2)c1
[5]
  EC50: 3.47 µM (active)

## CNC(=S)N1CCN(c2ccc(OC)cc2)CC1
[1]
  IC50: 34 µM (active)

## COc1cccc(C2=CC(c3cccs3)n3nnnc3N2)c1 (stereo unspecified)
[2]
  IC50: 1.42 µM (not active)

## COc1ccc(CC(=O)Nc2ccc(-c3noc(-c4cccc(OC)c4)n3)cc2)cc1
[12]
  EC50: 11.8 µM (active)
[14]
  AC50: 4.47 µM (inconclusive)
[13]
  EC50: 14.9 µM (active)
[15]
  AC50: 1 µM (inconclusive)

## COc1cc(CNc2ccc3c(c2)CCC3)cc(OC)c1O
[1]
  IC50: > 100 µM (active)

## CC(=O)Nc1ccc(S(=O)(=O)N2CCc3c(Cl)cccc3C2)cc1
[5]
  EC50: 4.82 µM (active)

## CCOC(=O)C(NC(C)=O)(N1CCOCC1)C(F)(F)F (stereo unspecified)
[8]
  EC50: > 350 µM (not active)
[9]
  EC50: > 350 µM (not active)

## O=C1N=C(NCc2ccccc2)S/C1=C/c1ccc(O)cc1
[1]
  IC50: 11.7 µM (active)
[16]
  IC50: 18.9 µM (active)

## CN(CCS(=O)(=O)c1ccc(Cl)cc1)Cc1cccnc1
[8]
  EC50: > 350 µM (not active)
[9]
  EC50: > 350 µM (not active)

## COc1ccc(-c2cc(C(=O)NC(Cc3cc4ccccc4[nH]3)C(=O)O)c(C)o2)cc1OC (stereo unspecified)
[2]
  IC50: 4.12 µM (not active)

## C[C@@]12C(=O)Nc3ccc(Br)cc3C(=O)N1[C@H]1c3ccccc3OC[C@@H]1[C@@H]2c1ccccc1
[17]
  AC50: 0.427 µM (active)

## COc1ccc(CNC(=S)N/N=C/c2ccc(O)c(OC)c2)cc1
[1]
  IC50: 27.7 µM (active)
[8]
  EC50: > 350 µM (not active)
[9]
  EC50: > 350 µM (not active)

## COc1cc([C@@H]2Oc3cc(C4Oc5cc(O)cc(O)c5C(=O)[C@H]4O)ccc3O[C@H]2CO)ccc1O (stereo partly specified)
[1]
  IC50: 57.5 µM (active)

## Cc1nn(-c2ccc([N+](=O)[O-])cc2)c(O)c1/C=N/CCN1CCN(C(=O)c2cccc(F)c2)CC1
[17]
  AC50: 5.99 µM (active)

## Cc1c(Cl)cccc1NC(=S)N/N=C/c1ccccc1Cl
[8]
  EC50: > 350 µM (not active)
[9]
  EC50: > 350 µM (not active)

## O=C(N/N=C1/CCCc2ccccc21)c1cc([N+](=O)[O-])cc([N+](=O)[O-])c1
[2]
  IC50: 21.8 µM (not active)

## CCO/C(O)=C1\C(C)=NC2=C(C1c1ccc([N+](=O)[O-])cc1)S(=O)(=O)c1ccccc12 (stereo unspecified)
[18]
  EC50: 17.2 µM (active)
[12]
  EC50: 31.4 µM (active)
[19]
  EC50: 23.9 µM (active)
[13]
  EC50: 29 µM (active)
[20]
  EC50: 17.8 µM (active)

## CC(C)(C)CC(C)(C)c1ccc(OCC(=O)N/N=C/c2ccc(S(=O)(=O)O)o2)cc1
[2]
  IC50: > 50 µM (not active)
